How the values were obtained:
[1] = target: YAP-TEAD protein interaction (His-TEAD1 (209-426) protein, Bio-YAP peptide (60-100)) (Homo sapiens, UniProt P28347); experiment: YAP-TEAD protein interaction HTRF experiment; format: binding; details: His-TEAD1 (209-426) 10 nM, Bio-YAP peptide 50 nM, read-out: Activity of each compound in blocking YAP-TEAD protein interaction (grades of IC50 values)
How it was run: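 His-TEAD1 (209-426) at 10 nM final was preincubated 20 min at RT with compounds (10-point 3-fold dilutions, duplicates, 1% DMSO), then Bio-YAP peptide, 10 min. Anti-His-Eu cryptate/streptavidin-XL665 added for 1 h at RT; HTRF read at ex 320 nm, Em665/Em620 ratio ×10000, IC50 from % inhibition.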

YAP/TEAD reporter gene = YAP/TEAD reporter gene inhibition experiment in SF268-YAP-Luc cells; format: cell-based; details: SF268-YAP-Luc cells, 24 hours, Renila luciferase signal corrected for cell viability; read-out: Activity of each compound in inhibiting the expression of YAP/TEAD reporter gene (grades of IC50 values)
Experimental: In this example, the inhibition of the compound on the target was detected by the signal of the reporter gene in the stable cell line SF268-YAP-Luc containing the YAP/TEAD reporter gene.
A sequence containing 6 tandem YAP/TEAD binding sites and a basal transcription promoter was constructed on the vector pGL4.76 of Promega Company. The constructed reporter gene vector was transfected into SF268 cells (NCI DCTD tumor/cell line repository) and screened with 0.5 μg/mL hygromycin to obtain SF268-YAP-Luc stable strain.
SF268-YAP-Luc cells were seeded into a 96-well plate at a density of 3000 cells per well with a volume of 100 μL per well (cell culture medium composition: RPMI1640 (Gibco-A10491-01)+10% FBS (Gibco-10099-141C)+1% penicillin-streptomycin (5,000 U/mL, Gibco-15070-063)), and the cells were incubated overnight in a 37° C., 5% carbon dioxide incubator.
On the next day, the compounds to be tested were 3-fold diluted, and a total of 8 concentration gradients were set up; a certain volume of DMSO or the compounds to be tested was added to each well, respectively, and 2 replicates were set up for each concentration, and the final concentration of DMSO was controlled to be no higher than 0.5%. The cells were incubated for 24 hours in a 37° C., 5% carbon dioxide incubator. Two identical parallel plates were set up for cell seeding and compound treatment.
Renila-Glo luciferase assay system kit (Promega, E2720) was used to detect the reporter gene signals of the control group and treatment group. 70 μL of Renila-Glo was added to each well, mixed well, and incubated at room temperature for 10 minutes. The signal was read using EnVision® Multilabel Plate Reader (Perkin Elmer).
Cell viability was detected in the control group and treatment group using CellTiter-Glo Luminescent Cell Viability Assay kit (Promega, G7570). 50 μL of CellTiter-Glo was added to each well, mixed well, and incubated at room temperature for 10 minutes. The signal was read using En Vision® Multilabel Plate Reader (Perkin Elmer).
The signal of Renila luciferase after correcting for cell viability was analyzed, and the inhibition rate of the compound on the reporter gene was calculated. The inhibition percentage (%) is calculated by the following formula: […]
Using Graphpad Prism software, the IC50 values for the compounds' inhibitory activity against Renila luciferase signaling were calculated.

MSTO-211H cells = experiment: Cell proliferation inhibition experiment (CellTiter-Glo); format: cell-based; details: Homo sapiens, 96 hours, read-out: Inhibitory activity of each compound on the proliferation of MSTO-211H cells (grades of IC50 values)
How it was run: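 MSTO-211H cells (1500/well, RPMI1640 + 10% FBS) were plated overnight at 37° C, 5% CO2, then exposed in duplicate to 9 three-fold compound dilutions (DMSO ≤0.5% final) for 96 hours. Viability was read as CellTiter-Glo luminescence after 10 min at room temperature. IC50 was derived from inhibition of the CTG signal.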

YAP-TEAD protein interaction (His-TEAD1 (209-426) protein, Bio-YAP peptide (60-100)), sequence (P28347 209-426): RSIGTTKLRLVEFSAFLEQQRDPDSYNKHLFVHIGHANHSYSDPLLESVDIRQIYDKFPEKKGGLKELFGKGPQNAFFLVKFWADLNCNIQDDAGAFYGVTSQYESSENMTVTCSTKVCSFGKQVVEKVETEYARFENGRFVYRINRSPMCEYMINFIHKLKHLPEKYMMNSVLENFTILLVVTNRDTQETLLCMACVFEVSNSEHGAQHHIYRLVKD

How did the IC50 [1] turn out when `Cn1cc2c(n1)Oc1c(cc(C(N)=O)c(-c3c(Cl)c(F)cc4c3C[C@](c3ccccc3)([C@@H]3CCCN3)O4)c1F)O2` (atropisomer, axis not shown) [Compound 8, (S)-7-((S)-5-Chloro-6-fluoro-2-phenyl-2-((S)-pyrrolidin-2-yl)-2,3-dihydrobenzofuran-4-yl)-8-fluoro-2-methyl-2H-benzo[5,6][1,4]dioxoino[2,3-c]pyrazole-6-carboxamide] was run?
The IC50 was under 50 nM.

What about the IC50 (YAP/TEAD reporter gene) of the same compound?
The IC50 was under 50 nM.

What about the IC50 (MSTO-211H cells) of the same compound?
The IC50 was under 200 nM.

`CNC[C@@]1(c2ccccc2)Cc2c(cc(F)c(Cl)c2-c2c(C(N)=O)cn3ccnc3c2F)O1` (atropisomer, axis not shown) [Compound I-1] was tested. Which IC50 [1] did it give?
The IC50 was under 50 nM.

And the IC50 (YAP/TEAD reporter gene)?
Its IC50 is under 50 nM.

And the IC50 (MSTO-211H cells)?
Its IC50 is under 200 nM.

`NC(=O)c1cc2c(c(F)c1-c1c(Cl)c(F)cc3c1C[C@](c1ccccc1)([C@@H]1CCCN1)O3)OCCO2` (atropisomer, axis not shown) [Compound 1, 7-((2S,4S)-5-Chloro-6-fluoro-2-phenyl-2-((S)-pyrrolidin-2-yl)-2,3-dihydrobenzofuran-4-yl)-8-fluoro-2,3-dihydrobenzo[b][1,4]dioxine-6-carboxamide] was tested. Which IC50 [1] did it give?
The IC50 was under 50 nM.

What about the IC50 (YAP/TEAD reporter gene) of the same compound?
Its IC50 is under 50 nM.

What about the IC50 (MSTO-211H cells) of the same compound?
Its IC50 is under 200 nM.

Which IC50 [1] does the source give for `CN1CCOc2c1cc(C(N)=O)c(-c1c(Cl)c(F)cc3c1C[C@](c1ccccc1)([C@@H]1CCCN1)O3)c2F` (atropisomer, axis not shown) [Compound I-24, (S)-7-((S)-5-Chloro-6-fluoro-2-phenyl-2-((S)-pyrrolidin-2-yl)-2,3-dihydrobenzofuran-4-yl)-8-fluoro-4-methyl-3,4-dihydro-2H-benzo[b][1,4]oxazine-6-carboxamide] here?
The IC50 was under 50 nM.

And the IC50 (YAP/TEAD reporter gene)?
Its IC50 is under 50 nM.

What about the IC50 (MSTO-211H cells) of the same compound?
The IC50 was under 200 nM.

For `CC(=O)N1CCOc2c1cc(C(N)=O)c(-c1c(Cl)c(F)cc3c1C[C@](c1ccccc1)([C@@H]1CCCN1)O3)c2F` (atropisomer, axis not shown) [Compound I-27, (S)-4-Acetyl-7-((S)-5-chloro-6-fluoro-2-phenyl-2-((S)-pyrrolidin-2-yl)-2,3-dihydrobenzofuran-4-yl)-8-fluoro-3,4-dihydro-2H-benzo[b][1,4]oxazine-6-carboxamide], which IC50 [1] is on record?
The IC50 was under 50 nM.

And the IC50 (YAP/TEAD reporter gene)?
Its IC50 is under 50 nM.

And the IC50 (MSTO-211H cells)?
Its IC50 is 200 to 500 nM.

`Cn1cc2c(n1)COc1c-2cc(C(N)=O)c(-c2c(Cl)c(F)cc3c2C[C@](c2ccccc2)([C@@H]2CCCN2)O3)c1F` (atropisomer, axis not shown) [Compound 3, (S)-7-((S)-5-Chloro-6-fluoro-2-phenyl-2-((S)-pyrrolidin-2-yl)-2,3-dihydrobenzofuran-4-yl)-6-fluoro-2-methyl-2,4-dihydrochromeno[3,4-c]pyrazole-8-carboxamide] was tested. Which IC50 [1] did it give?
Its IC50 is under 50 nM.

What about the IC50 (YAP/TEAD reporter gene) of the same compound?
The IC50 was under 50 nM.

And the IC50 (MSTO-211H cells)?
The IC50 was under 200 nM.

For `NC(=O)c1cc2c(c(F)c1-c1c(Cl)c(F)cc3c1C[C@](c1ccccc1)([C@@H]1CCCN1)O3)OCC(=O)N2` (atropisomer, axis not shown) [Compound I-23, (S)-7-((S)-5-Chloro-6-fluoro-2-phenyl-2-((S)-pyrrolidin-2-yl)-2,3-dihydrobenzofuran-4-yl)-8-fluoro-3-oxo-3,4-dihydro-2H-benzo[b][1,4]oxazine-6-carboxamide], which IC50 [1] is on record?
Its IC50 is under 50 nM.

And the IC50 (YAP/TEAD reporter gene)?
Its IC50 is 50 to 500 nM.

What about the IC50 (MSTO-211H cells) of the same compound?
Its IC50 is under 200 nM.

What does the source list for `CN1C(=O)COc2c1cc(C(N)=O)c(-c1c(Cl)c(F)cc3c1C[C@](c1ccccc1)([C@@H]1CCCN1)O3)c2F` (atropisomer, axis not shown) [Compound I-25, (S)-7-((S)-5-Chloro-6-fluoro-2-phenyl-2-((S)-pyrrolidin-2-yl)-2,3-dihydrobenzofuran-4-yl)-8-fluoro-4-methyl-3-oxo-3,4-dihydro-2H-benzo[b][1,4]oxazine-6-carboxamide]?
IC50 [1]: < 50 nM; IC50 (YAP/TEAD reporter gene): 50 to 500 nM; IC50 (MSTO-211H cells): 200 to 500 nM

With `NC(=O)c1cc2c(c(F)c1-c1c(Cl)c(F)cc3c1CC(c1ccccc1)(C1CCCN1)O3)OCCN2` [Compound I-19, (S)-7-((S)-5-Chloro-6-fluoro-2-phenyl-2-((S)-pyrrolidin-2-yl)-2,3-dihydrobenzofuran-4-yl)-8-fluoro-3,4-dihydro-2H-benzo[b][1,4]oxazine-6-carboxamide] as the compound, how does the IC50 [1] read?
The IC50 was under 50 nM.

What about the IC50 (YAP/TEAD reporter gene) of the same compound?
Its IC50 is under 50 nM.
